Reference: ChEMBL document CHEMBL1201862, “PubChem BioAssay data set” (2004)
Activity calls are given as the source filed them.

Tests used:
[1] = tested on: HEK293; test: SAR Analysis of small molecule inhibitors of B-cell specific antigen receptor-induced NF-kB activation in a HEK-293T cell line using a luminescence assay - Set 2. [Related pubchem assays (depositor defined):AID435022, AID435025, AID489021]; type: functional, cell-based; details: Homo sapiens
[2] = tested on: Jurkat; test: SAR Analysis of small molecule inhibitors of […] specific antigen receptor-induced NF-kB activation in a Jurkat cell line using a luminescence assay - Set 3. [Related pubchem assays (depositor defined):AID435022, AID435025, AID465]; type: functional, cell-based; details: Homo sapiens
[3] = tested on: HEK293; test: HEK293T cell viability loss, resazurin readout – resazurin fluorescence, cytotoxicity control for NF-kB activator project, SAR follow-up (AID 493251); type: functional, cell-based; details: Homo sapiens
[4] = target: DNA topoisomerase (Yersinia pestis, UniProt A0A2S9PM60); test: Yersinia topoisomerase I cleavage product accumulation – biochemical, cherry-pick, dose response (AID 588525)
[5] = potency of ADAM10 substrate cleavage blockers – biochemical, QFRET, dose response (AID 743254);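 further: ADAM10 enzyme with the DM2 quenched FRET peptide as substrate; EDANS fluorescence gain as the protease cuts the substrate; inhibitor potency against ADAM10 proteolytic activity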
[6] = target: Disintegrin and metalloproteinase domain-containing protein 17 (Homo sapiens, UniProt P78536); test: inhibition of ADAM17 substrate cleavage – biochemical, quenched FRET substrate, counter-screen for ADAM10 exosite inhibitor project, dose response (AID 743253)
[7] = target: T1, Sentrin-specific protease 6 (Homo sapiens, UniProt Q9GZR1); test: SAR Analysis of small molecule inhibitors of Sentrin-specific protease 6 (SENP6) using a Luminescent assay. [Related pubchem assays (depositor defined):AID2582, AID2599]; type: functional
T1 sequence (Q9GZR1 whole entry): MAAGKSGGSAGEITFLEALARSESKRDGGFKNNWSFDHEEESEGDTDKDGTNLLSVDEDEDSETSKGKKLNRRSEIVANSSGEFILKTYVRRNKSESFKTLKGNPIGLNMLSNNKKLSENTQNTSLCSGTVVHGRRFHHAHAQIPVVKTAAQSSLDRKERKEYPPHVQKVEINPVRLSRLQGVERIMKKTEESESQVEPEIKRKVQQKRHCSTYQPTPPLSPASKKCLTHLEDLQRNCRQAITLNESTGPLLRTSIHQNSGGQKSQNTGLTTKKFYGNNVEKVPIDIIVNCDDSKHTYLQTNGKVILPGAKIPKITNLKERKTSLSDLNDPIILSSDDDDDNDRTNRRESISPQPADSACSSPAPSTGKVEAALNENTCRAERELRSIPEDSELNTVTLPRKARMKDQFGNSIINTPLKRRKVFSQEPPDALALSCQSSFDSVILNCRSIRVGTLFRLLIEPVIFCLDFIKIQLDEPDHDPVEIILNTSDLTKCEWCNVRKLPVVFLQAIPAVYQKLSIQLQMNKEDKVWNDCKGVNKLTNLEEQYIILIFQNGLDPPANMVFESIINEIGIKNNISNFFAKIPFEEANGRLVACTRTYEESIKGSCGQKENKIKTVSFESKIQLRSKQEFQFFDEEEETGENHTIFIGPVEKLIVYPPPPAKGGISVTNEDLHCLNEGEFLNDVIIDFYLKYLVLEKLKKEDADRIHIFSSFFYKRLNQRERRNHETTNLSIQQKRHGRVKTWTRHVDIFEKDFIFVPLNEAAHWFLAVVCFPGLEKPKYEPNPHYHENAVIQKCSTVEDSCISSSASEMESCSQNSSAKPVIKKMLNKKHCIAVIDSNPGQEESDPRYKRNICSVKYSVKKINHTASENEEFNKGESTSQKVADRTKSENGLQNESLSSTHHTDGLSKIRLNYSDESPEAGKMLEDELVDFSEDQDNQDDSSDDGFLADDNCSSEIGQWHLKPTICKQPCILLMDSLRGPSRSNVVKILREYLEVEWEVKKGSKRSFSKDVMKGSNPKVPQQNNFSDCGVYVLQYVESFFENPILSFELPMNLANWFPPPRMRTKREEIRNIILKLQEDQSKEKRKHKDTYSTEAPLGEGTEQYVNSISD

[8] = target: T2, Sentrin-specific protease 8 (Homo sapiens, UniProt Q96LD8); test: inhibition of human SENP8 cleavage activity – biochemical, luminescence, SAR follow-up (AID 504501); type: functional
T2 sequence (Q96LD8 whole entry): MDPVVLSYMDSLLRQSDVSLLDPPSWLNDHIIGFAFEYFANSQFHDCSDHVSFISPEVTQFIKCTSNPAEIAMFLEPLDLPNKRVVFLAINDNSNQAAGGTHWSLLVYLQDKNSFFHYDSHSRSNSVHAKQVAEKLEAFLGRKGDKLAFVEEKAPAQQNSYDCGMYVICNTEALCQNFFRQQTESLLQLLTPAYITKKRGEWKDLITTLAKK

[9] = target: T3, Sentrin-specific protease 7 (Homo sapiens, UniProt Q9BQF6); test: inhibition of human SENP7 cleavage activity – biochemical, luminescence, SAR follow-up (AID 504497); type: functional
T3 sequence (Q9BQF6 whole entry): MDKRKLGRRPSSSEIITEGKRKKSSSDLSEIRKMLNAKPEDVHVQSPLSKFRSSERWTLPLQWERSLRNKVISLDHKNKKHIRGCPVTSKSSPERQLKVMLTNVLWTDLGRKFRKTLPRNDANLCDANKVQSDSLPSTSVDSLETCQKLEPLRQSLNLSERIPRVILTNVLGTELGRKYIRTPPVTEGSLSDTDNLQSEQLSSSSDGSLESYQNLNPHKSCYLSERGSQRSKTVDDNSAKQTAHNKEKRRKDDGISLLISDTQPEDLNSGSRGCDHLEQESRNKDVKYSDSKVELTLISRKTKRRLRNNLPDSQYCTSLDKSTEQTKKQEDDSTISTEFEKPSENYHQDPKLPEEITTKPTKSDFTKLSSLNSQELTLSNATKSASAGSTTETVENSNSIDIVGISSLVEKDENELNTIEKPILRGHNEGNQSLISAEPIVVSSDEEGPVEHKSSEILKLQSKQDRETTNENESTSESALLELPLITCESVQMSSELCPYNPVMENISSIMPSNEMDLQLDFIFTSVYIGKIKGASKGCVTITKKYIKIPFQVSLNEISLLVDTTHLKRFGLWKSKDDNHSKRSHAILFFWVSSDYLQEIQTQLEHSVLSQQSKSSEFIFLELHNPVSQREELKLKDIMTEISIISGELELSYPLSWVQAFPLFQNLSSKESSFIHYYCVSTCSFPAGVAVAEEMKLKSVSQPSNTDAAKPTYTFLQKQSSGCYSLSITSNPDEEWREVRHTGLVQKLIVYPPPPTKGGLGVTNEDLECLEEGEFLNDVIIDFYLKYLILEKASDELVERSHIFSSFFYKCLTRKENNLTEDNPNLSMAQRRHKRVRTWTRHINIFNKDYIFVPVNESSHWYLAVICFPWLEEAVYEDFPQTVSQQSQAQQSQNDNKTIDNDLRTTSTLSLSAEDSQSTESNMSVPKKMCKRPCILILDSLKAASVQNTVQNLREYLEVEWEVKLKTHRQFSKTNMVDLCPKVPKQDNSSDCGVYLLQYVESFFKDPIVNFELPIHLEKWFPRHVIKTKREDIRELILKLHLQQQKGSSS

[10] = target: T3, Sentrin-specific protease 7; test: inhibition of human SENP7 cleavage activity – biochemical, luminescence, set 2, SAR follow-up (AID 588600); type: functional
[11] = target: T4, Caspase-3 (Homo sapiens, UniProt P42574); test: SAR Analysis of small molecule inhibitors of Sentrin-specific proteases (SENPs) using a Caspase-3 Selectivity assay. [Related pubchem assays (depositor defined):AID2540, AID2599, AID434973, AID489001]; type: functional
T4 sequence (P42574 whole entry): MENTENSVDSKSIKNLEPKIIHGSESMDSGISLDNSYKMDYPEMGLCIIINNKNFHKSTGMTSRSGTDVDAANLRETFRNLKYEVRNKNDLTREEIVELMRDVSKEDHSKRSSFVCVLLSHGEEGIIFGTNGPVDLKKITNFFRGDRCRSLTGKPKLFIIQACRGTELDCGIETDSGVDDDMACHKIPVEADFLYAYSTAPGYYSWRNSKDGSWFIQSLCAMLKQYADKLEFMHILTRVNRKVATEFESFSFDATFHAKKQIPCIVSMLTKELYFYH

[12] = target: T4, Caspase-3; test: inhibition of recombinant caspase-3 activity – biochemical, luminescence, set 2, selectivity assay for SENP protease inhibitor project, SAR follow-up (AID 588599); type: functional
[13] = target: T2, Sentrin-specific protease 8; test: inhibition of sentrin protease 8 – biochemical, luminescence, set 2, SAR follow-up (AID 588601); type: functional
[14] = target: T1, Sentrin-specific protease 6; test: inhibition of human SENP6 catalytic domain – biochemical, luminescence, set 2, SAR follow-up (AID 588598); type: functional
[15] = target: T5, Hexokinase-1 (Homo sapiens, UniProt P19367); test: SAR analysis of small molecule inhibitors of hexokinase domain containing I (HKDC1) in the hexokinase 1 selectivity assay. [Related pubchem assays (depositor defined):AID493160, AID493190]; type: functional
T5 sequence (P19367 whole entry): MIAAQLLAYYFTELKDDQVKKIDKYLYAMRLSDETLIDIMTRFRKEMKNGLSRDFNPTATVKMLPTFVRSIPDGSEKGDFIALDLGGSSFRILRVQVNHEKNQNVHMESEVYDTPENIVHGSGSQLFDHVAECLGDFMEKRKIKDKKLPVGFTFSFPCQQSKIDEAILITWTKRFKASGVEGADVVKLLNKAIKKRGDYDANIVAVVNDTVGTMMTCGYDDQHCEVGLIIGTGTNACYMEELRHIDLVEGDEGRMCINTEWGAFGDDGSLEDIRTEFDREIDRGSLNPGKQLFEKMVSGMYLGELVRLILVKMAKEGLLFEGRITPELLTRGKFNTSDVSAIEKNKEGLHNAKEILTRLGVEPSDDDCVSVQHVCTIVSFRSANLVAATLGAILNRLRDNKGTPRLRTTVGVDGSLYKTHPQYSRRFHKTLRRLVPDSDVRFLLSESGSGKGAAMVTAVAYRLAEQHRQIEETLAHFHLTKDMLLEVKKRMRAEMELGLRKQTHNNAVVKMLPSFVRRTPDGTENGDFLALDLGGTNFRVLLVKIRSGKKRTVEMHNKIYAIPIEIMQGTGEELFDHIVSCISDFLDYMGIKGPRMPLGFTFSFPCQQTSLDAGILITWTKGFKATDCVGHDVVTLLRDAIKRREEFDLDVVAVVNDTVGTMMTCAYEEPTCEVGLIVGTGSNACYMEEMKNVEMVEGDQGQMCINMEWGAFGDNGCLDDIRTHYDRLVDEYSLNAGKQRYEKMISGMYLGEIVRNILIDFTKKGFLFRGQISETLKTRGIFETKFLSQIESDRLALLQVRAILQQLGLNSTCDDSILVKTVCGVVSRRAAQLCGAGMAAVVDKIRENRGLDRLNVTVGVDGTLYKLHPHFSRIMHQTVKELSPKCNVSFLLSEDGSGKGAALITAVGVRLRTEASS

[16] = target: T6, Hexokinase HKDC1 (Homo sapiens, UniProt Q2TB90); test: SAR analysis of small molecule inhibitors of hexokinase domain containing I (HKDC1). [Related pubchem assays (depositor defined):AID493160, AID493190]; type: functional
T6 sequence (Q2TB90 whole entry): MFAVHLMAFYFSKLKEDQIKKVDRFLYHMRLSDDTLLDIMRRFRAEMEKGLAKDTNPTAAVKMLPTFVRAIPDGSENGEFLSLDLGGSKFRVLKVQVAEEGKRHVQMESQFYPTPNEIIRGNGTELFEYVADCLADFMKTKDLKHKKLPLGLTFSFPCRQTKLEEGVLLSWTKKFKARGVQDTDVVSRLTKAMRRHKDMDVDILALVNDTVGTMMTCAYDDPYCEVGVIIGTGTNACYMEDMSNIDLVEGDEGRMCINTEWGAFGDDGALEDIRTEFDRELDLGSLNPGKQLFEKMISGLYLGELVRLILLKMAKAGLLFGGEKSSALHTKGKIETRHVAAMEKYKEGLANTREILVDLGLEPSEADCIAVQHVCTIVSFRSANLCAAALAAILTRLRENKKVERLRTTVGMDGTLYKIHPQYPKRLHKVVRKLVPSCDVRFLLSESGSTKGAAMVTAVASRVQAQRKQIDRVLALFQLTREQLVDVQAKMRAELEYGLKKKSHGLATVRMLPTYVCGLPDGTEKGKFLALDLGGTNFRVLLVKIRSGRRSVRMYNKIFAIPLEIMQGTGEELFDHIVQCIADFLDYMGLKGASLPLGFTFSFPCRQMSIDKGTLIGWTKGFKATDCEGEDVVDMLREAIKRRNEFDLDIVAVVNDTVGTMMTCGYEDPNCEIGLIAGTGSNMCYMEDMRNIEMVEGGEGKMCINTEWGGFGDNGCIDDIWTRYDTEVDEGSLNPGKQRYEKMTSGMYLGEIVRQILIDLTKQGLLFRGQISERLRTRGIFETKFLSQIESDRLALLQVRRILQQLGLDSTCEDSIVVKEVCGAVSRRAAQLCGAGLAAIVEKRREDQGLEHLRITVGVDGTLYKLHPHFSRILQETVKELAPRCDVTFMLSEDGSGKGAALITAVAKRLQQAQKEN

Chain of DNA topoisomerase (A0A2S9PM60 whole entry): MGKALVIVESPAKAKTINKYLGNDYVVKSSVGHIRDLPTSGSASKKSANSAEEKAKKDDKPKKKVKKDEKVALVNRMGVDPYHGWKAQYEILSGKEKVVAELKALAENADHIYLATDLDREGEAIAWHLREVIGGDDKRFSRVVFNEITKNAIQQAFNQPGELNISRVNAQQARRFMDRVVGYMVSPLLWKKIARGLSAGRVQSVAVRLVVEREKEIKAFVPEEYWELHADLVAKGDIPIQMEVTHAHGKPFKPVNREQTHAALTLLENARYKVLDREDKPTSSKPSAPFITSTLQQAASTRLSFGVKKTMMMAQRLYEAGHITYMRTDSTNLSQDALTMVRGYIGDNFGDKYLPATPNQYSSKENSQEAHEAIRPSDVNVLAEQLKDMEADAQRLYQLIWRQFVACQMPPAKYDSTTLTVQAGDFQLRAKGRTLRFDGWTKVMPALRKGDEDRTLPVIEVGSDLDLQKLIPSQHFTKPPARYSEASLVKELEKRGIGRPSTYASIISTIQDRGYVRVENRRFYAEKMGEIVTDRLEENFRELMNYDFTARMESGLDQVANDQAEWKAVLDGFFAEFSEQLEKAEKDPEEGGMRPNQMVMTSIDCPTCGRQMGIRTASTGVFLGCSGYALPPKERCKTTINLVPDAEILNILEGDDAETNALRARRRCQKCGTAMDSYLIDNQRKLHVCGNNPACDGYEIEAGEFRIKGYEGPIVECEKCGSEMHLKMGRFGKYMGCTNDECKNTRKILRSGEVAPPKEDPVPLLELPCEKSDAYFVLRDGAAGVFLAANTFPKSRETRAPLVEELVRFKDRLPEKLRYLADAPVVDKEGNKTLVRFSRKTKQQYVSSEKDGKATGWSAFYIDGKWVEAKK
Chain of Disintegrin and metalloproteinase domain-containing protein 17 (P78536 whole entry, the tested form may be a part): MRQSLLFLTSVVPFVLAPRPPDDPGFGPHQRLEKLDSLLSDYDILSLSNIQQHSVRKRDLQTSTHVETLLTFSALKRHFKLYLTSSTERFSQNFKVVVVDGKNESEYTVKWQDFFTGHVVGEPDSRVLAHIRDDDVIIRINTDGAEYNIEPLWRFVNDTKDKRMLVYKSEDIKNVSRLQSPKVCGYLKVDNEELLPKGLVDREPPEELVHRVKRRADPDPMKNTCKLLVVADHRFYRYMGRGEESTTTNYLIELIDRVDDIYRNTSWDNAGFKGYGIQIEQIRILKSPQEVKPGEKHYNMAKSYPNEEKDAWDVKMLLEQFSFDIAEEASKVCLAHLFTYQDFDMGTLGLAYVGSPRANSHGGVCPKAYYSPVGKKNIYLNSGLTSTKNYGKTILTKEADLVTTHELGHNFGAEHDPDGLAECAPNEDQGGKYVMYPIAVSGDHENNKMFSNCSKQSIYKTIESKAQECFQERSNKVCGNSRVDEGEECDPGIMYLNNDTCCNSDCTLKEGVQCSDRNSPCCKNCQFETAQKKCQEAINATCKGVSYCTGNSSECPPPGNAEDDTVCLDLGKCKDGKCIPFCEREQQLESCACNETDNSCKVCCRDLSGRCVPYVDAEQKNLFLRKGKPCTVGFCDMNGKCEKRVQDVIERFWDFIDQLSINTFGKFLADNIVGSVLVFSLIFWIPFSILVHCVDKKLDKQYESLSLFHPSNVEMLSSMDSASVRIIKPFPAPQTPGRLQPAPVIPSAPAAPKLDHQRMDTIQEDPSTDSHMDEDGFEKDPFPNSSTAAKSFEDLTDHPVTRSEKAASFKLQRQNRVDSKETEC

Compound: COc1cccc(NC(=O)CCc2nc(-c3ccc(C(C)(C)C)cc3)no2)c1
- IC50 [1]: 0.24 µM (active)
- IC50 [2]: 0.242 µM (active)
- IC50 [3]: > 80 µM (inactive)

Compound: Cc1cc(C)c2c(=O)n3c(nc2c1)C(Cc1ccc(O)cc1)NC(=O)c1cc2ccccc2cc1-3 (stereo unspecified)
- AC50 [4]: 9.07 µM (active)
- IC50 [5]: > 69.5 µM (inactive)
- IC50 [6]: > 69.5 µM (inactive)

Compound: CCCCc1ccc2nc(NC(=O)c3nccs3)sc2c1
- IC50 [7]: 4.4 µM (active)
- IC50 [8]: 5.4 µM (active)
- IC50 [9]: 3.3 µM (active)
- IC50 [10]: 6.32 µM (active)
- IC50 [11]: 5.4 µM (active)
- IC50 [12]: 4.83 µM (active)
- IC50 [13]: 4.9 µM (active)
- IC50 [14]: 7.43 µM (active)

Compound: O=c1c2ccccc2nc(/C=C/c2ccccn2)n1-c1ccccc1
- IC50 [15]: > 80 µM (inactive)
- IC50 [16]: > 80 µM (inactive)
